According to US20250221988A1 (Cullgen (Shanghai), Inc., priority 2022, published 2025):
Like-named read-outs stand apart in the source and are kept apart here.

Experiments:
MV4;11 cells = experiment: Cell viability assay (CellTiter-Glo) in MV4;11 cells; type: cell-based; details: read-out: MV4
Outline: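 After three days' exposure to 3-fold serial compound dilutions (8 or 12 points), viability of cells seeded at 5000/well is read by CellTiter-Glo. Runs were done alone or combined with gilteritinib at 10 nM (MV4;11) or 20 nM (MOLM-13); IC50 from nonlinear regression.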

MOLM-13 cells = experiment: Cell viability assay (CellTiter-Glo) in MOLM-13 cells; type: cell-based
[1] = Homo sapiens, MV4-11, 72 h, MV4;11 cells, compound alone, three days, 11 IC50
[2] = MV4;11 cells, with 10 nM gilteritinib, three days, 11 IC50 (nM) + 10 nM Gil
[3] = Homo sapiens, 72 h, MOLM-13 cells, compound alone, three days, read-out: MOLM-13 IC50
[4] = MOLM-13 cells, with gilteritinib, three days, read-out: MOLM-13 IC50 (nM) + 10 nM Gil
[5] = Homo sapiens, MV4-11, 72 h, 11 IC50 (nM)
[6] = 11 IC50 (nM) + 10 nM Gil, MV4;11 cells, with 10 nM gilteritinib, three days
[7] = Homo sapiens, MOLM-13, 72 h, read-out: MOLM-13 IC50 (nM)
[8] = read-out: MOLM-13 IC50 (nM) + 10 nM Gil, MOLM-13 cells, with gilteritinib, three days

| Compound | IC50 (MV4;11 cells; [1]) | IC50 (MV4;11 cells; [2]) | IC50 (MOLM-13 cells; [3]) | IC50 (MOLM-13 cells; [4]) | IC50 (MV4;11 cells; [5]) | IC50 (MV4;11 cells; [6]) | IC50 (MOLM-13 cells; [7]) | IC50 (MOLM-13 cells; [8]) |
| --- | --- | --- | --- | --- | --- | --- | --- | --- |
| O=C1CCC(N2C(=O)c3ccc(NC[C@H]4C[C@H](n5cc(-c6ccc7cn[nH]c7n6)c(C6CC6)n5)C4)cc3C2=O)C(=O)N1 (stereo partly drawn) [GS-714, 5-(((Trans-3-(3-cyclopropyl-4-(1H-pyrazolo[3,4-b]pyridin-6-yl)-1H-pyrazol-1-yl)cyclobutyl)methyl)amino)-2-(2,6-dioxopiperidin-3-yl)isoindoline-1,3-dione] | 10 to 100 nM | 10 to 100 nM | 100 to 1000 nM | 10 to 100 nM |  |  |  |  |
| Cc1nc(-c2cn([C@H]3C[C@H](COc4ccc5c(c4)C(=O)N(C4CCC(=O)NC4=O)C5=O)C3)nc2C2CC2)ccc1F (stereo partly drawn) [GS-715, 5-((Trans-3-(3-cyclopropyl-4-(5-fluoro-6-methylpyridin-2-yl)-1H-pyrazol-1-yl)cyclobutyl)methoxy)-2-(2,6-dioxopiperidin-3-yl)isoindoline-1,3-dione] | > 1000 nM | 100 to 1000 nM | > 1000 nM |  |  |  |  |  |
| Cc1nc(-c2cn([C@H]3C[C@H](CNc4cc5c(cc4F)C(=O)N(C4CCC(=O)NC4=O)C5=O)C3)nc2C2CC2)ccc1F (some centres unmarked) [GS-716] | > 1000 nM |  | > 1000 nM |  |  |  |  |  |
| Cc1cc(F)cnc1-c1cn([C@H]2C[C@H](CNc3ccc4c(c3)C(=O)N(C3CCC(=O)NC3=O)C4=O)C2)nc1C1CC1 (stereo partly drawn) [GS-717, 5-(((Trans-3-(3-cyclopropyl-4-(5-fluoro-3-methylpyridin-2-yl)-1H-pyrazol-1-yl)cyclobutyl)methyl)amino)-2-(2,6-dioxopiperidin-3-yl)isoindoline-1,3-dione] | < 10 nM | < 10 nM | 10 to 100 nM | < 10 nM |  |  |  |  |
| O=C1CCC(N2C(=O)c3cc(F)c(NCCC[C@H]4C[C@H](n5cc(-c6cnc7ccccc7n6)c(C6CC6)n5)C4)cc3C2=O)C(=O)N1 (stereo partly drawn) [GS-718, 5-((3-(Trans-3-(3-cyclopropyl-4-(quinoxalin-2-yl)-1H-pyrazol-1-yl)cyclobutyl)propyl)amino)-2-(2,6-dioxopiperidin-3-yl)-6-fluoroisoindoline-1,3-dione] | > 1000 nM |  | > 1000 nM |  |  |  |  |  |
| Cc1cc(F)cnc1-c1cn([C@H]2C[C@H](CNc3ccc4c(c3)C(=O)N(C3CCC(=O)NC3=O)C4=O)C2)nc1C(F)F (stereo partly drawn) [GS-719, 5-(((Trans-3-(3-(Difluoromethyl)-4-(5-fluoro-3-methylpyridin-2-yl)-1H-pyrazol-1-yl)cyclobutyl)methyl)amino)-2-(2,6-dioxopiperidin-3-yl)isoindoline-1,3-dione] | 10 to 100 nM | < 10 nM | 10 to 100 nM | < 10 nM |  |  |  |  |
| O=C1CCC(N2C(=O)c3ccc(NC[C@H]4C[C@H](n5cc(-c6ccc7[nH]ccc7n6)c(C6CC6)n5)C4)cc3C2=O)C(=O)N1 (stereo partly drawn) [GS-720, 5-(((Trans-3-(3-cyclopropyl-4-(1H-pyrrolo[3,2-b]pyridin-5-yl)-1H-pyrazol-1-yl)cyclobutyl)methyl)amino)-2-(2,6-dioxopiperidin-3-yl)isoindoline-1,3-dione] | 10 to 100 nM | 10 to 100 nM | 100 to 1000 nM | 10 to 100 nM |  |  |  |  |
| O=C1CCC(N2Cc3ccc(CC[C@H]4C[C@H](n5cc(-c6cnc7ccccc7n6)c(C6CC6)n5)C4)cc3C2=O)C(=O)N1 (stereo partly drawn) [GS-725, 3-(6-(2-(Trans-3-(3-cyclopropyl-4-(quinoxalin-2-yl)-1H-pyrazol-1-yl)cyclobutyl)ethyl)-1-oxoisoindolin-2-yl)piperidine-2,6-dione] |  |  |  |  | 100 to 1000 nM | 10 to 100 nM | > 1000 nM | 100 to 1000 nM |
| O=C1CCC(N2C(=O)c3ccc(NC[C@H]4C[C@H](n5cc6ccccc6n5)C4)cc3C2=O)C(=O)N1 (stereo partly drawn) [GS-727, 5-(((Trans-3-(2H-indazol-2-yl)cyclobutyl)methyl)amino)-2-(2,6-dioxopiperidin-3-yl)isoindoline-1,3-dione] |  |  |  |  | > 1000 nM | 100 to 1000 nM | > 1000 nM | 100 to 1000 nM |
| CC(C)n1ncc2ccc(-c3cn([C@H]4C[C@H](CNc5ccc6c(c5)C(=O)N(C5CCC(=O)NC5=O)C6=O)C4)nc3C3CC3)nc21 (stereo partly drawn) [GS-730, 5-(((Trans-3-(3-cyclopropyl-4-(1-isopropyl-1H-pyrazolo[3,4-b]pyridin-6-yl)-1H-pyrazol-1-yl)cyclobutyl)methyl)amino)-2-(2,6-dioxopiperidin-3-yl)isoindoline-1,3-dione] |  |  |  |  | 10 to 100 nM | 10 to 100 nM | 100 to 1000 nM | 10 to 100 nM |

Continued, in another order:

| IC50 (MV4;11 cells; [1]) | IC50 (MV4;11 cells; [2]) | IC50 (MOLM-13 cells; [3]) | IC50 (MOLM-13 cells; [4]) | Compound | IC50 (MV4;11 cells; [5]) | IC50 (MV4;11 cells; [6]) | IC50 (MOLM-13 cells; [7]) | IC50 (MOLM-13 cells; [8]) |
| --- | --- | --- | --- | --- | --- | --- | --- | --- |
| < 10 nM | < 10 nM | 10 to 100 nM | < 10 nM | O=C1CCC(N2C(=O)c3ccc(NC[C@H]4C[C@H](n5cc(-c6ccc7cc[nH]c7n6)c(C6CC6)n5)C4)cc3C2=O)C(=O)N1 (stereo partly drawn) [GS-721, 5-(((Trans-3-(3-cyclopropyl-4-(1H-pyrrolo[2,3-b]pyridin-6-yl)-1H-pyrazol-1-yl)cyclobutyl)methyl)amino)-2-(2,6-dioxopiperidin-3-yl)isoindoline-1,3-dione] |  |  |  |  |
| 10 to 100 nM | < 10 nM | 10 to 100 nM | < 10 nM | Cn1ccc2ccc(-c3cn([C@H]4C[C@H](CNc5ccc6c(c5)C(=O)N(C5CCC(=O)NC5=O)C6=O)C4)nc3C3CC3)nc21 (stereo partly drawn) [GS-722, 5-(((trans-3-(3-cyclopropyl-4-(1-methyl-1H-pyrrolo[2,3-b]pyridin-6-yl)-1H-pyrazol-1-yl)cyclobutyl)methyl)amino)-2-(2,6-dioxopiperidin-3-yl)isoindoline-1,3-dione] |  |  |  |  |
| 100 to 1000 nM | 10 to 100 nM | 100 to 1000 nM | 10 to 100 nM | Cc1nc(-c2cn(C3CC(F)(CNc4ccc5c(c4)C(=O)N(C4CCC(=O)NC4=O)C5=O)C3)nc2C2CC2)ccc1F (stereo not drawn) [GS-723, 5-(((Trans-3-(3-cyclopropyl-4-(5-fluoro-6-methylpyridin-2-yl)-1H-pyrazol-1-yl)-1-fluorocyclobutyl)methyl)amino)-2-(2,6-dioxopiperidin-3-yl)isoindoline-1,3-dione] |  |  |  |  |
| < 10 nM | < 10 nM | 10 to 100 nM | < 10 nM | O=C1CCC(N2C(=O)c3ccc(NCCC4CC5(C4)CC(n4cc(-c6cnc7ccccc7n6)c(C6CC6)n4)C5)cc3C2=O)C(=O)N1 (centres unmarked) [GS-724, 5-((2-(6-(3-Cyclopropyl-4-(quinoxalin-2-yl)-1H-pyrazol-1-yl)spiro[3.3]heptan-2-yl)ethyl)amino)-2-(2,6-dioxopiperidin-3-yl)isoindoline-1,3-dione] |  |  |  |  |
| > 1000 nM |  | > 1000 nM | 10 to 100 nM | O=C1CCC(N2C(=O)c3ccc(NC[C@H]4C[C@H](n5ncc6ccccc65)C4)cc3C2=O)C(=O)N1 (stereo partly drawn) [GS-728, 5-(((Trans-3-(1H-indazol-1-yl)cyclobutyl)methyl)amino)-2-(2,6-dioxopiperidin-3-yl)isoindoline-1,3-dione] |  |  |  |  |
| 100 to 1000 nM | 10 to 100 nM | > 1000 nM | 100 to 1000 nM | Cc1nc(-c2cn([C@H]3C[C@H](CNc4ccc5c(c4)C(=O)N(C4CCC(=O)NC4=O)C5)C3)nc2C2CC2)ccc1F (stereo partly drawn) [GS-732, 3-(6-(((Trans-3-(3-cyclopropyl-4-(5-fluoro-6-methylpyridin-2-yl)-1H-pyrazol-1-yl)cyclobutyl)methyl)amino)-1-oxoisoindolin-2-yl)piperidine-2,6-dione] |  |  |  |  |
| < 10 nM | < 10 nM | < 10 nM | < 10 nM | O=C1CCC(N2C(=O)c3ccc(NC[C@H]4C[C@H](n5cc(-c6ncc(F)c7[nH]ccc67)c(C6CC6)n5)C4)cc3C2=O)C(=O)N1 (stereo partly drawn) [GS-733, 5-(((Trans-3-(3-cyclopropyl-4-(7-fluoro-1H-pyrrolo[3,2-c]pyridin-4-yl)-1H-pyrazol-1-yl)cyclobutyl)methyl)amino)-2-(2,6-dioxopiperidin-3-yl)isoindoline-1,3-dione] |  |  |  |  |
